Reference: patent US20210228545A1, “METHODS OF TREATING CONDITIONS RELATED TO THE S1P1 RECEPTOR” (Arena Pharmaceuticals, Inc., priority 2018, published 2021)
Entries after “also recorded” stand apart in the source; their conditions may differ.

What was measured:
[1] = molecular target: T1, OATP1B1 (Homo sapiens, UniProt Q9Y6L6); assay: Transporter substrate evaluation, HEK293 cells; assay type: in vitro ADME; parameters: expressed in transfected cells; host or cells: HEK293; conditions: 1 and 10 μM
T1 sequence (Q9Y6L6 1-691): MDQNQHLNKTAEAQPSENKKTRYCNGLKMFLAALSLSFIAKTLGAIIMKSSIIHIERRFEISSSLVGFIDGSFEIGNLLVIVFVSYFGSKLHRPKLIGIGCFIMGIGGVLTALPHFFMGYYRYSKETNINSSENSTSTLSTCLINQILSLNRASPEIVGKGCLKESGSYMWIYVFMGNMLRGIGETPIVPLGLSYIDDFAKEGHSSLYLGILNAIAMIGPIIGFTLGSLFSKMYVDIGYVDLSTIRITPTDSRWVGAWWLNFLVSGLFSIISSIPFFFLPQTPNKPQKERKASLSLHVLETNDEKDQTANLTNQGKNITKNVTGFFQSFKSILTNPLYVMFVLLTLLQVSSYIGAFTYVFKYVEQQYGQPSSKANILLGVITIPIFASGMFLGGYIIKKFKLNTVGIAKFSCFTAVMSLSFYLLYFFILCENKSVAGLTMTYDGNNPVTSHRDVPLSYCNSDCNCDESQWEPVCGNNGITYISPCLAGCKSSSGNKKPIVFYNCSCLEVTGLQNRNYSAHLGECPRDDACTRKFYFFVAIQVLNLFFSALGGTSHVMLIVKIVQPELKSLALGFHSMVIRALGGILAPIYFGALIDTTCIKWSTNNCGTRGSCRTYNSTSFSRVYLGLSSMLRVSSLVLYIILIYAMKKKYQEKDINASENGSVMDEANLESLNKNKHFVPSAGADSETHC

[2] = molecular target: T2, OAT1 (Homo sapiens, UniProt Q4U2R8); assay: Transporter inhibition, HEK293 cells; assay type: in vitro ADME
T2 construct: expressed in transfected cells; host or cells: HEK293
T2 sequence (Q4U2R8 1-563): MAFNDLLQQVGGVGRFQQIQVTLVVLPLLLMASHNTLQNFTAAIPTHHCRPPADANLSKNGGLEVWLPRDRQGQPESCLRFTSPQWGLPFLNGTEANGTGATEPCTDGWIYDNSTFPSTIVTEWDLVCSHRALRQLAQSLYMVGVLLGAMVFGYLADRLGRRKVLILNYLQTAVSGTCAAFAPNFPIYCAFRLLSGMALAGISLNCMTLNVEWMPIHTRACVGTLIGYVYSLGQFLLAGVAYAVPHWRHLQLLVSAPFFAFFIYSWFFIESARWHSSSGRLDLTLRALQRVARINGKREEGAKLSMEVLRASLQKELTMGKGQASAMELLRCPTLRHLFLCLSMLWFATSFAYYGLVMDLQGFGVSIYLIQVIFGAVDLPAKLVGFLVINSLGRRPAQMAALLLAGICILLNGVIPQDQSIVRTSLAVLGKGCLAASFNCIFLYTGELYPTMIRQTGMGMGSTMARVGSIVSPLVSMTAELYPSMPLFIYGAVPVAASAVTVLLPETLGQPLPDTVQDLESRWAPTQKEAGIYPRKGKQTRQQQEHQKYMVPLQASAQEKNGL

[3] = molecular target: T3, BCRP (Homo sapiens, UniProt Q9UNQ0); assay: Transporter inhibition, MDCKII-BCRP cells; assay type: in vitro ADME
T3 sequence (Q9UNQ0 1-655): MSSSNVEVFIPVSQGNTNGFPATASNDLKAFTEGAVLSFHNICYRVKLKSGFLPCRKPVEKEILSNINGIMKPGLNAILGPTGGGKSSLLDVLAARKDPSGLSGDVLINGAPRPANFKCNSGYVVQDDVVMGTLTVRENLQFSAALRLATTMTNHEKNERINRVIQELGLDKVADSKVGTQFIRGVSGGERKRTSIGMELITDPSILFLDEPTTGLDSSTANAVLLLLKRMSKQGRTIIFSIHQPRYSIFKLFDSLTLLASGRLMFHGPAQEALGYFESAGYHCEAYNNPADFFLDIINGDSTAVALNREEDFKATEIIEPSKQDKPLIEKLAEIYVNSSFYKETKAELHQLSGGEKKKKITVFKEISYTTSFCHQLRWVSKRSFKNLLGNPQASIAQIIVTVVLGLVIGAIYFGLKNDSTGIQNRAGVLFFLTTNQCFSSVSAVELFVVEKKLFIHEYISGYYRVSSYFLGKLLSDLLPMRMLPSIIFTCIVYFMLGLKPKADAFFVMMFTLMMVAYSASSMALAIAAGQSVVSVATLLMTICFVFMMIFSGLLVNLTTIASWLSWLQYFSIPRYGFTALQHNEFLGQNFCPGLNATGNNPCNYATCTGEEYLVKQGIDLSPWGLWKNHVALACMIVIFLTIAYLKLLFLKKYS

[4] = molecular target: T2, OAT1; assay: Transporter substrate evaluation, HEK293 cells; assay type: in vitro ADME; conditions: 1 and 10 μM
[5] = tested on: CYP2B6; assay: CYP induction in cultured human hepatocytes; assay type: in vitro ADME; conditions: criteria >2-fold mRNA increase and ≥20% of positive control
[6] = male Sprague-Dawley rats; cited from earlier work
[7] = molecular target: T1, OATP1B1; assay: Transporter inhibition, HEK293 cells
[8] = molecular target: rCYP2C8 (Homo sapiens, UniProt P10632); assay: Compound 1 loss on incubation with rCYP enzymes; assay type: in vitro ADME; conditions: 120 minutes of incubation
Sequence of rCYP2C8 (P10632 whole entry): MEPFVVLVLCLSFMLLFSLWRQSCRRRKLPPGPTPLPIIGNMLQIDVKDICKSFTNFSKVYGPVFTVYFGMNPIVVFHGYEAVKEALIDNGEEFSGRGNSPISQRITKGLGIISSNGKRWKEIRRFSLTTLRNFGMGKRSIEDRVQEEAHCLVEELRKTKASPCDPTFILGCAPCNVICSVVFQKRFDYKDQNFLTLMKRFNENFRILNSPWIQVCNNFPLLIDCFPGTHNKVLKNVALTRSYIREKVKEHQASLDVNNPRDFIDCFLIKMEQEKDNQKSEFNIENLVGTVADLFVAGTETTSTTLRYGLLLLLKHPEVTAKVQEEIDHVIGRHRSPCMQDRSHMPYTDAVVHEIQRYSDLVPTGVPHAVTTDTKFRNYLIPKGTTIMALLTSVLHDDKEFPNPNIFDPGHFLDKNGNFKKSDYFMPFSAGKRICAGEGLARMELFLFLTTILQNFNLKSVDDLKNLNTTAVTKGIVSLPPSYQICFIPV

## O=C(O)C[C@H]1CCc2c1[nH]c1ccc(OCc3ccc(C4CCCC4)c(C(F)(F)F)c3)cc21 [Compound 1, (R)-2-(7-(4-cyclopentyl-3-(trifluoromethyl)benzyloxy)-1,2,3,4-tetrahydrocyclopenta[b]indol-3-yl)acetic acid]
[1]; HEK293 cells
  Potential substrate of OATP1B1: not a substrate of OATP1B1 and not a substrate and No
[1]; absence and presence of rifampin
  Uptake ratio into OATP1B1-expressing cells: less than two
[2]; 1 and 10 μM
  Reduction of uptake rate of p-aminohippurate into OAT1-expressing cells (inhibition): less than 50%
[2]; HEK293 cells, [3H]-p-aminohippurate (1 μM), 1 and 10 μM tested
  IC50: > 10 µM
[3]; 10 and 100 μM, post-assay TEER below acceptance criteria
  Reduction of corrected efflux ratio of prazosin (1 μM) across MDCKII-BCRP cells: more than 50%
[3]; MDCKII-BCRP cells, prazosin (1 μM), 0.03 to 30 μM
  IC50: 35.7 µM
[4]; HEK293 cells
  Potential substrate of OAT1: not a substrate of OAT1 and not a substrate and No
[4]; absence and presence of probenecid (100 μM)
  Uptake ratio into OAT1-expressing cells: less than two
[5]
  Induction potential for CYP2B6: no induction potential; also recorded: not a potential inducer
[6]
  Bradycardia: no or substantially no bradycardia
[7]; 1 μM Compound 1
  OATP1B1 inhibition: no OATP1B1 inhibition
[7]; 10 μM Compound 1
  Reduction of uptake rate of [3H]-estradiol-17β-glucuronide (50 nM) into OATP1B1-expressing cells: ~50%
[8]
  Compound 1 loss with rCYP2C8: up to 75%
